Results as given in patent publication US20250091911A1, “NANOFILTRATION SYSTEM AND METHOD INCLUDING PRETREATMENT WITH GREEN SORPTION MEDIA” (University of Central Florida Research Foundation, Inc., priority 2023, published 2025).

Experiments:
[1] = Overall removal by CPS-nanofiltration water treatment system
Description: (§1) Water samples collected from the C-23 canal were first fortified with PFOS and PFOA and then used as influents to the pretreatment column containing one of the two green sorption media. Note the water samples were not fortified with PFBA and PFBS. The green sorption media effluent served as the feedwater for the nanofiltration unit of the proposed water treatment system. The nanofiltration membrane unit without any green sorption media-based pretreatment served as the “control.” The integration of a green sorption media (CPS or ZIPGEM) with crossflow nanofiltration is herein referred to as a water treatment system, denoted as CPS-nanofiltration or ZIPGEM-nanofiltration. The CPS and ZIPGEM column influents and effluents and nanofiltration permeates were analyzed for both long-chain (PFOS and PFOA) and short-chain (PFBS and PFBA) PFAS. FIG. 3 presents the green sorption media-nanofiltration hybrid treatment scheme.
(§2) The average removal efficiencies of each media pretreatment were calculated based on PFAS concentrations in the influents and effluents of triplicate columns, as disclosed in TABLE 5. […] The overall efficiency of the hybrid treatment was calculated by comparing the average concentrations of PFAS in the influents of the green sorption media pretreatment columns and the nanofiltration permeates, as disclosed in TABLE 6.
where C0 is the concentration of PFAS in the column influent or nanofiltration feed in ng·L^−1, and where Ce is the concentration of PFAS in the column effluent or nanofiltration permeate in ng·L^−1. TABLE 7 summarizes the key findings of the green sorption media-based pretreatment and green sorption media-nanofiltration treatment, and these are explained in the subsequent subsection through an in-depth discussion and statistical analysis. It should be noted that PFOS concentration was slightly higher in the membrane permeates compared to the effluent of green sorption media pretreatment media, as disclosed in TABLE 5. The slight increase in PFOS concentration could be attributed to the filtration experimental setup that operated in a total recirculation mode. However, most of the differences were very close to the MDL for PFOS (1 ng·L^−1), which was already undetected in the green sorption media effluent

[2] = Fixed-bed column pretreatment of spiked C-23 canal water with ZIPGEM; conditions: for Removal via column C1: ZIPGEM column 1, 30 h; for Removal via column C2: ZIPGEM column 2, 30 h; for Removal via column C3 / average removal percentage by media: ZIPGEM; for Removal via column C3: 30 h; for average removal percentage by media: triplicate columns
Method: (§3) The water samples were collected from the same site of the C-23 canal during both the dry and wet seasons. However, only wet season water samples were used in the experiment. The water samples were analyzed for both long-chain (PFOA and PFOS) and short-chain (Perfluorobutanoic acid [PFBA] and Perfluorobutanesulfonic acid [PFBS]) PFAS following the modified EPA 537.1 method (Shoemaker & Tettenhorst, 2020). Through this method, an aliquot of a 250 mL water sample containing analytes and internal standards is extracted via solid phase extraction. The extracted analytes and internal standards are then eluted with methanol and ammonium hydroxide in methanol solvent. Then the eluted samples are dried with nitrogen and reconstituted to 1 mL volume with a buffer solution. The samples are then injected into a C18 liquid chromatography column, and the PFAS compounds are separated by a gradient of pure methanol and 20 mM ammonium acetate. Finally, the eluted compounds are detected, and their concentrations are measured via tandem mass spectrometry. The method detection limits (MDLs) for PFBA, PFBS, PFOA, and PFOS were 0.5 ng·L^−1, 2 ng·L^−1, 0.5 ng·L^−1, and 1 ng·L^−1, respectively. The concentration of calcium ion (Ca^2+) was analyzed at Eurofins Flowers's Chemical Laboratories (Altamonte Springs, Florida) following EPA method 6010D using inductively coupled plasma optical emission spectroscopy (MDL=0.096 mg·L^−1). Total organic carbon (TOC) and dissolved organic carbon (DOC) were measured using a TOC analyzer following EPA method 415.3.
as §1
C-23 canal water was stored in a walk-in refrigerator at […] after collection. For the pretreatment experiment, a total of 60 L of water was used as influents to the CPS and ZIPGEM columns. Although the raw water was spiked with 70 ng·L^−1 of PFOA and PFOS each, the short-chain PFAS (PFBA, PFBS) were at their indigenous concentrations. A peristaltic pump was used to deliver the water to the columns at a constant flowrate of 14 ml·min^−1. Three columns (triplicate) with 3 ft length and 4-inch diameter containing 2,600 ml of media were set up for each media, and all samples were analyzed in triplicate (FIG. 4). The fixed-bed column experiments were run for more than 48 h, and effluents were taken at different time intervals to be used as feedwaters for the nanofiltration treatment that followed. […] At least 5 L of column effluent were collected to be used as the nanofiltration feed, and the stated effluent at 9 h for CPS was collected from 0 h until 9 h, whereas effluent at 30 h for ZIPGEM was collected from 9 h until 30 h. The collected effluents from the column study were stored in a refrigerator until they were used for the nanofiltration experiment. FIG. 4 illustrates the experimental setup for the pretreatment CPS and ZIPGEM process.
The average removal efficiencies of each media pretreatment were calculated based on PFAS concentrations in the influents and effluents of triplicate columns, as disclosed in TABLE 5. […]

[3] = Crossflow nanofiltration of CPS-pretreated water; conditions: for PFAS concentration, membrane permeates (MP): CPS-nanofiltration @ 9 h
Method: as §3
A commercially available nanofiltration membrane (membrane ID: XN45) was used for the crossflow nanofiltration experiment. The membranes were acquired as flat sheets and cut into coupons of required sizes (active surface area of 42 cm^2) to fit into a membrane cell (CF042).
A bench-scale crossflow filtration setup was used in these experimental methods. The experimental setup consisted of a feed tank, a centrifugal pump, three CF042 membrane cells connected to pressure gauges, check valves, and flowmeters. A recirculating chiller was used for regulating the temperature at 20° C. Three high-precision balances were used to measure the weight of the collected permeate and to calculate the flowrates. The scales were connected to a computer for data acquisition.
Before each experimental run, the membrane cells and tubing were cleaned by running DI water as feed without placing any membrane coupons inside the cells. Then the membrane coupons were mounted into the cells firmly and compacted at 100 psi for at least 4 h using DI water. After that, 5 L of the effluents from the pretreatment media (i.e., the C-23 water samples that were run through the CPS and ZIPGEM) were taken as feedwater for each nanofiltration filtration experiment. The experiments were run for 24 h before collecting permeates and feed samples for analysis. The experiments were conducted at a constant flowrate of 1.0 L·min^−1, with a corresponding cross flow velocity of 0.18 m·s^−1. The transmembrane pressure was initially set to 110 psi at the beginning of the permeate collection by regulating inlet and retentate valves. However, the pressure changed over time as feed concentration increased during the permeate collection. The experiment was run in total recirculation mode, whereby both the retentate and permeate were recycled, except the time of permeate collection.
as §2, with “6. […]” for “6.”

SMILES | O = overall removal by water treatment system ([1]; column 1) [%] | O = overall removal by water treatment system ([1]; column 2) [%] | O = overall removal by water treatment system ([1]; column 3) [%] | Removal via column C1 [2] [%] | Removal via column C2 [2] [%] | Removal via column C3 [2] [%] | average removal percentage by media [2] | PFAS concentration, membrane permeates (MP) ([3]; Col 1) [ng/L] | PFAS concentration, membrane permeates (MP) ([3]; Col 2) [ng/L] | PFAS concentration, membrane permeates (MP) ([3]; Col 3) [ng/L] | nanofiltration membrane removal ([3]; feed = CPS column 1 effluent) [%] | nanofiltration membrane removal ([3]; feed = CPS column 2 effluent) [%] | nanofiltration membrane removal ([3]; feed = CPS column 3 effluent) [%]
O=S(=O)(O)C(F)(F)C(F)(F)C(F)(F)C(F)(F)C(F)(F)C(F)(F)C(F)(F)C(F)(F)F [PFOS, Perfluorooctanesulfonic acid] | 100 | 100 | 100 | 100 | 100 | 100 | 100 | 2.0 | 1.90 | 0.74 | 100 | 100 | 100
O=C(O)C(F)(F)C(F)(F)C(F)(F)C(F)(F)C(F)(F)C(F)(F)C(F)(F)F [PFOA, Perfluorooctanoic acid] | 98 | 94 | 97 | 19 | 19 | 4 | 14 | 2.27 | 5.83 | 2.43 | 40 | 58 | 78
O=C(O)C(F)(F)C(F)(F)C(F)(F)F [PFBA, Perfluorobutanoic acid] | 58 | 45 | 53 | 5 | 5 | 8 | 6 | 3.20 | 4.17 | 3.60 | 47 | 28 | 33
O=S(=O)(O)C(F)(F)C(F)(F)C(F)(F)C(F)(F)F [PFBS, Perfluorobutanesulfonic acid] | 41 | 38 | 52 | 6 | 5 | −1 | 3.3 | 3.27 | 3.40 | 2.67 | 26 | 15 | 35
